Source: patent US20240190838A1, “LZK-TARGETING DEGRADERS AND METHODS OF USE” (The U.S.A., as represented by the Secretary, Department of …, priority 2020, published 2024)

How the values were obtained:
[1] = Pharmacokinetics in female NSG mice; assay type: in vivo; settings: single IP 50 mg/kg
Protocol: Drug concentrations in plasma and tissue samples were measured by a qualified UPLC-MS/MS method with a Waters Acquity I-Class UPLC interfaced with a Waters TQ-S mass spectrometer. The lower limit of quantitation (LLOQ) was 1 ng/mL for plasma and 1 ng/g tissue for liver, kidney, lung and brain. PK parameters were calculated using the non-compartmental method of the pharmacokinetic software package Phoenix WinNonlin, version 6.2 (Certara, St. Louis, MO). The area under the plasma concentration versus time curve (AUC) was calculated using the linear trapezoidal method. […] The apparent terminal half-life (t1/2) was calculated as 0.693/λ.
In vitro ADME properties of targeted degraders 3 and 7 were studied with the standard Tier I assays, i.e. kinetic solubility assay, parallel artificial membrane permeability assay (PAMPA) and rat liver microsomal (RLM) stability assay (Sun et al., Bioorg Med Chem 2019, 27(14):3110-4; Sun et al., Bioorg Med Chem 2017, 25(3):1266-76; Shah et al., Drug Metab Dispos 2016, 44(10):1653-61). The pharmacokinetics (PK) of targeted degraders 3 and 7 were determined in female NSG mice (The Jackson Laboratory; body weight range from 17-25 grams) after a single intraperitoneal injection of 50 mg/kg. […]

Kinetic solubility assay = assay type: physicochemical; settings: kinetic from dmso stock
LZK = biological target: T1, LZK (Homo sapiens, UniProt O43283); assay: In vitro kinase assay (LZK phosphorylation of MKK7); assay type: biochemical; design: purchased Carna Biosciences 09-114; settings: 100 μM ATP
T1 sequence (O43283 1-966): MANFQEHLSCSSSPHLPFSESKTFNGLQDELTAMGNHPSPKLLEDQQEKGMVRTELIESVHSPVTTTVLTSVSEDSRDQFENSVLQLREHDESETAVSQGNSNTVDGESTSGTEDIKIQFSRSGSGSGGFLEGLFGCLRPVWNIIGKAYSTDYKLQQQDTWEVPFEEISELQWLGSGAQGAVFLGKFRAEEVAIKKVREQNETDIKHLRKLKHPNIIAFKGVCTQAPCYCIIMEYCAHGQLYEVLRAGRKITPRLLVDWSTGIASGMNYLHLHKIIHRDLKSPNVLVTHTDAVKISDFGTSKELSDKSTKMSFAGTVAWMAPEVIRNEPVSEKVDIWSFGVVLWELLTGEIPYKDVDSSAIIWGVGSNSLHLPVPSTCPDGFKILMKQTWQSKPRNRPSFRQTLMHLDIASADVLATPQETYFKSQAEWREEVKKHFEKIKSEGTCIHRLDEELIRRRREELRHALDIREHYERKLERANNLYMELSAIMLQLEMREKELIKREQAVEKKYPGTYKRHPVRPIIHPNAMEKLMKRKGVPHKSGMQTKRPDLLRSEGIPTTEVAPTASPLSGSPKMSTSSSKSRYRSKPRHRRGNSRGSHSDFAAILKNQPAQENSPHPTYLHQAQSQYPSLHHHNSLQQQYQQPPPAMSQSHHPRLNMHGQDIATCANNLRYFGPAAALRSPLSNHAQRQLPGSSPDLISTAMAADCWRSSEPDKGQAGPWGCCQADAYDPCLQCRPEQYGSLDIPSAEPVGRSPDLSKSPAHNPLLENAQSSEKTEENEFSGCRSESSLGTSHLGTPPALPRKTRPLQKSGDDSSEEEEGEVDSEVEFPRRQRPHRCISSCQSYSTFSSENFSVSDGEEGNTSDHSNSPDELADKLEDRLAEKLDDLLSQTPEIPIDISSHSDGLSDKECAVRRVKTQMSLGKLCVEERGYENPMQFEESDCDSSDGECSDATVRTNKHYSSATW
Protocol: The assay was performed with 100 μM ATP at 37° C. for 30 minutes. Following the addition of 4× reducing SDS sample buffer, proteins were resolved by sodium dodecyl sulfate-polyacrylamide gel electrophoresis (SDS-PAGE) and immunoblot analysis was performed as stated previously.

solubility (Kinetic solubility assay) | SMILES | tissue distribution and drug characteristics [1] | in vitro phosphorylation of MKK7 (LZK)
< 1 µg/mL | Cc1ncsc1-c1ccc([C@H](C)NC(=O)[C@@H]2C[C@@H](O)CN2C(=O)[C@@H](NC(=O)CCCCCCC(=O)N2CCC(c3cc(Nc4cc(C#N)ccn4)nc(N4CCC(F)(F)C4)c3)CC2)C(C)(C)C)cc1 [Compound 3] | variable tissue distribution and overall promising drug characteristics | 
 | N#Cc1ccnc(Nc2cc(C3CCN(C4COC4)CC3)cc(N3CCC(F)(F)C3)n2)c1 [GNE-3511] |  | decreased in vitro phosphorylation of MKK7
